# From US20230146675A1, “PYRIMIDO[5,4-d]PYRIMIDINE DERIVATIVES AS ENT INHIBITORS FOR THE TREATMENT OF CANCERS, AND COMBINATION THEREOF WITH ADENOSINE RECEPTOR ANTAGONISTS” (ITEOS BELGIUM SA, priority 2020, published 2023)
# Molecular target: T1, human ENT1 (Homo sapiens, UniProt Q99808)
# T1 sequence (Q99808 1-456): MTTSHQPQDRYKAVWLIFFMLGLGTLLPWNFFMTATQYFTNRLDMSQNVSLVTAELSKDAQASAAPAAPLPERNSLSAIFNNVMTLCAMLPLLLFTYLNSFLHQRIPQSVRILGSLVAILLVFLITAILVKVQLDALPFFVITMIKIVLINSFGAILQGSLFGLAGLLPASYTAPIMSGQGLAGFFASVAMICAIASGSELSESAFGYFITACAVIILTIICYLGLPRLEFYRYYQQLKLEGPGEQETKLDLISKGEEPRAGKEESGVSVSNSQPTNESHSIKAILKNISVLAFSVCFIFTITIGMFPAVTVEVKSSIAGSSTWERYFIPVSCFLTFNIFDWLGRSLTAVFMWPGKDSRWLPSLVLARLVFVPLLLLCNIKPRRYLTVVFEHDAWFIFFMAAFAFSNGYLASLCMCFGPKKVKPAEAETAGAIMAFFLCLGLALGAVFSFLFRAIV
# Assay: ENT1 binding assay (competition with Sahenta-DY647 on JAR cells)
# Set-up: JAR cells expressing ENT1 were bought from ATCC; host or cells: JAR cells
# Settings: binned IC50
# In short: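 JAR cells were incubated with test compounds and the fluorescent ligand Sahenta-DY647 in competition. Plates were washed twice by centrifugation (4 min, 400 rcf, 4 °C). Binding potency was derived from the final fluorescence.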
row,IC50,Compound
1,100 to 500 nM,"CCCNc1nc(N(CCOC)CCOC)nc2c(N3CCN(C)C(=O)C3)nc(N(CCOC)CCOC)nc12 [Compound 214, 4-(2,6-bis(bis(2-methoxyethyl)amino)-8-(propylamino)pyrimido[5,4-d]pyrimidin-4-yl)-1-methylpiperazin-2-one]"
2,100 to 500 nM,"COCCN(CCOC)c1nc(N2CCN(C)C(=O)C2)c2nc(N(CCOC)CCOC)nc(N3CCN(c4ncn(C)n4)CC3)c2n1 [Compound 216, 4-(2,6-bis(bis(2-methoxyethyl)amino)-8-(4-(1-methyl-1H-1,2,4-triazol-3-yl)piperazin-1-yl)pyrimido[5,4-d]pyrimidin-4-yl)-1-methylpiperazin-2-one]"
3,100 to 500 nM,"CCCNc1nc(N(CCOC)CCOC)nc2c(N3CCN(c4ncn(C)n4)CC3)nc(N(CCOC)CCOC)nc12 [Compound 218, N2,N2,N6,N6-tetrakis(2-methoxyethyl)-8-(4-(1-methyl-1H-1,2,4-triazol-3-yl)piperazin-1-yl)-N4-propylpyrimido[5,4-d]pyrimidine-2,4,6-triamine]"
4,100 to 500 nM,"COCCN(CCOC)c1nc(N2CCN(c3ncn(C)n3)CC2)c2nc(N(CCOC)CCOC)nc(NCC(C)C)c2n1 [Compound 219, N4-isobutyl-N2,N2,N6,N6-tetrakis(2-methoxyethyl)-8-(4-(1-methyl-1H-1,2,4-triazol-3-yl)piperazin-1-yl)pyrimido[5,4-d]pyrimidine-2,4,6-triamine]"
5,< 100 nM,"COCCN(CCOC)c1nc(N2CCN(c3ncn(C)n3)CC2)c2nc(N(CCOC)CCOC)nc(NCc3cccc(F)c3)c2n1 [Compound 220, N4-(3-fluorobenzyl)-N2,N2,N6,N6-tetrakis(2-methoxyethyl)-8-(4-(1-methyl-1H-1,2,4-triazol-3-yl)piperazin-1-yl)pyrimido[5,4-d]pyrimidine-2,4,6-triamine]"
6,< 100 nM,"COCCN(CCOC)c1nc(N2CCN(c3ncn(C)n3)CC2)c2nc(N(CCOC)CCOC)nc(NCc3cccc(Cl)c3)c2n1 [Compound 221, N4-(3-chlorobenzyl)-N2,N2,N6,N6-tetrakis(2-methoxyethyl)-8-(4-(1-methyl-1H-1,2,4-triazol-3-yl)piperazin-1-yl)pyrimido[5,4-d]pyrimidine-2,4,6-triamine]"
7,< 100 nM,"COCCN(CCOC)c1nc(N2CCN(c3ncn(C)n3)CC2)c2nc(N(CCOC)CCOC)nc(NCc3cccc(OC)c3)c2n1 [Compound 222, N4-(3-methoxybenzyl)-N2,N2,N6,N6-tetrakis(2-methoxyethyl)-8-(4-(1-methyl-1H-1,2,4-triazol-3-yl)piperazin-1-yl)pyrimido[5,4-d]pyrimidine-2,4,6-triamine]"
8,< 100 nM,"COCCN(CCOC)c1nc(N2CCN(c3ncn(C)n3)CC2)c2nc(N(CCOC)CCOC)nc(NCc3cccc(OC(F)(F)F)c3)c2n1 [Compound 223, N2,N2,N6,N6-tetrakis(2-methoxyethyl)-8-(4-(1-methyl-1H-1,2,4-triazol-3-yl)piperazin-1-yl)-N4-(3-(trifluoromethoxy)benzyl)pyrimido[5,4-d]pyrimidine-2,4,6-triamine]"
9,< 100 nM,"COCCN(CCOC)c1nc(N2CCN(c3ncn(C)n3)CC2)c2nc(N(CCOC)CCOC)nc(NCc3cccc(C#N)c3)c2n1 [Compound 224, 3-(((2,6-bis(bis(2-methoxyethyl)amino)-8-(4-(1-methyl-1H-1,2,4-triazol-3-yl)piperazin-1-yl)pyrimido[5,4-d]pyrimidin-4-yl)amino)methyl)benzonitrile]"
10,< 100 nM,"COCCN(CCOC)c1nc(N2CCN(c3ncn(C)n3)CC2)c2nc(N(CCOC)CCOC)nc(NCc3ccc(F)c(C#N)c3)c2n1 [Compound 225, 5-(((2,6-bis(bis(2-methoxyethyl)amino)-8-(4-(1-methyl-1H-1,2,4-triazol-3-yl)piperazin-1-yl)pyrimido[5,4-d]pyrimidin-4-yl)amino)methyl)-2-fluorobenzonitrile]"
11,100 to 500 nM,"COCCN(CCOC)c1nc(N2CCN(c3ncn(C)n3)CC2)c2nc(N(CCOC)CCOC)nc(NCc3cccc(S(C)(=O)=O)c3)c2n1 [Compound 226, N2,N2,N6,N6-tetrakis(2-methoxyethyl)-8-(4-(1-methyl-1H-1,2,4-triazol-3-yl)piperazin-1-yl)-N4-(3-(methylsulfonyl)benzyl)pyrimido[5,4-d]pyrimidine-2,4,6-triamine]"

# The remaining lines, values behind:
row,Compound,IC50
1,"COCCN(CCOC)c1nc(N2CCN(C)C(=O)C2)c2nc(N(CCOC)CCOC)nc(NCc3cccc(F)c3)c2n1 [Compound 207, 4-(2,6-bis(bis(2-methoxyethyl)amino)-8-((3-fluorobenzyl)amino)pyrimido[5,4-d]pyrimidin-4-yl)-1-methylpiperazin-2-one]",< 100 nM
2,"COCCN(CCOC)c1nc(N2CCN(C)C(=O)C2)c2nc(N(CCOC)CCOC)nc(NCc3cccc(Cl)c3)c2n1 [Compound 208, 4-(2,6-bis(bis(2-methoxyethyl)amino)-8-((3-chlorobenzyl)amino)pyrimido[5,4-d]pyrimidin-4-yl)-1-methylpiperazin-2-one]",< 100 nM
3,"COCCN(CCOC)c1nc(N2CCN(C)C(=O)C2)c2nc(N(CCOC)CCOC)nc(NCc3cccc(OC)c3)c2n1 [Compound 209, 4-(2,6-bis(bis(2-methoxyethyl)amino)-8-((3-methoxybenzyl)amino)pyrimido[5,4-d]pyrimidin-4-yl)-1-methylpiperazin-2-one]",< 100 nM
4,"COCCN(CCOC)c1nc(N2CCN(C)C(=O)C2)c2nc(N(CCOC)CCOC)nc(NCc3cccc(OC(F)(F)F)c3)c2n1 [Compound 210, 4-(2,6-bis(bis(2-methoxyethyl)amino)-8-((3-(trifluoromethoxy)benzyl)amino)pyrimido[5,4-d]pyrimidin-4-yl)-1-methylpiperazin-2-one]",< 100 nM
5,"COCCN(CCOC)c1nc(N2CCN(C)C(=O)C2)c2nc(N(CCOC)CCOC)nc(NCc3ccc(F)c(C#N)c3)c2n1 [Compound 211, 5-(((2,6-bis(bis(2-methoxyethyl)amino)-8-(4-methyl-3-oxopiperazin-1-yl)pyrimido[5,4-d]pyrimidin-4-yl)amino)methyl)-2-fluorobenzonitrile]",< 100 nM
6,"COCCN(CCOC)c1nc(N2CCN(C)C(=O)C2)c2nc(N(CCOC)CCOC)nc(NCc3cccc(S(C)(=O)=O)c3)c2n1 [Compound 212, 4-(2,6-bis(bis(2-methoxyethyl)amino)-8-((3-(methylsulfonyl)benzyl)amino)pyrimido[5,4-d]pyrimidin-4-yl)-1-methylpiperazin-2-one]",500 to 1000 nM
7,"COCCN(CCOC)c1nc(N2CCN(C)C(=O)C2)c2nc(N(CCOC)CCOC)nc(NCc3ccc(F)c(F)c3)c2n1 [Compound 213, 4-(2,6-bis(bis(2-methoxyethyl)amino)-8-((3,4-difluorobenzyl)amino)pyrimido[5,4-d]pyrimidin-4-yl)-1-methylpiperazin-2-one]",< 100 nM
8,"COCCN(CCOC)c1nc(N2CCN(C)C(=O)C2)c2nc(N(CCOC)CCOC)nc(NCC(C)C)c2n1 [Compound 215, 4-(2,6-bis(bis(2-methoxyethyl)amino)-8-(isobutylamino)pyrimido[5,4-d]pyrimidin-4-yl)-1-methylpiperazin-2-one]",100 to 500 nM
9,"COCCN(CCOC)c1nc(N2CCS(=O)(=O)CC2)c2nc(N(CCOC)CCOC)nc(N3CCN(c4ncn(C)n4)CC3)c2n1 [Compound 217, 4-(2,6-bis(bis(2-methoxyethyl)amino)-8-(4-(1-methyl-1H-1,2,4-triazol-3-yl)piperazin-1-yl)pyrimido[5,4-d]pyrimidin-4-yl)thiomorpholine 1,1-dioxide]",100 to 500 nM
